Data on 12 molecules can be found in PubChem BioAssay (NCI).

Among the test systems are IGROV1 ovarian; TK-10 renal; NCI/ADR-RES ovarian; SK-MEL-5 melanoma; KM12 colon; OVCAR-4 ovarian; MDA-MB-231 breast; T-47D breast; LOX IMVI melanoma; CAKI-1 renal.
Holding throughout (experiment): NCI-60 cell line screen, 48 h

Structures are written as SMILES.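 96-well plates; 48 h exposure; 5 concentrations. Endpoints by linear interpolation between flanking doses. Not reached: highest tested concentration assigned. TGI is the concentration that stops growth completely.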 Where a SMILES comes first, the peptide text is derived from it. The star is where a group is joined. Boc = CC(C)(C)OC(=O)* A value given as a limit tells only on which side of the number the result lay.

Turning to `COc1ccc(-n2c3c(c4c(CN(C)C)c(O)ccc42)C(=O)c2ccccc2C3=O)cc1`, the TGI with IGROV1 ovarian is 23 µM; in the assay with TK-10 renal, 36.8 µM; with NCI/ADR-RES ovarian it was 26.3 µM; in the assay with SK-MEL-5 melanoma it was 5.67 µM; in the assay on KM12 colon, 10.7 µM; in the assay on OVCAR-4 ovarian, 15.9 µM. The TGI stood at 7.67 µM in the assay on MDA-MB-231 breast, 6.99 µM in the assay on T-47D breast, 7 µM with LOX IMVI melanoma and 34.5 µM in the assay with CAKI-1 renal.
For the molecule `CCOCC(NC(=O)C(CC(C)C)NC(=O)OC(C)(C)C)C(N)=O` (stereo not drawn) (Boc-Leu-Ser(Et)-NH2; configuration not given here), the TGI in the assay with IGROV1 ovarian, in the assay with TK-10 renal, with NCI/ADR-RES ovarian, in the assay on SK-MEL-5 melanoma, with KM12 colon and with OVCAR-4 ovarian was over 100 µM throughout. Moreover, the TGI with MDA-MB-231 breast, in the assay on T-47D breast, in the assay with LOX IMVI melanoma and in the assay with CAKI-1 renal was over 100 µM in each case.
Turning to `N#C[C@@]12CCCC(=O)[C@@H]1[C@H]1CCC[C@H]12`, the TGI in the assay on IGROV1 ovarian was 32.2 µM; with TK-10 renal it was 35.3 µM; in the assay with NCI/ADR-RES ovarian it was 59.4 µM; in the assay with SK-MEL-5 melanoma, 30.8 µM; with KM12 colon, 27.4 µM; in the assay with OVCAR-4 ovarian it was 58.6 µM. Also, the TGI was 31.2 µM in the assay with MDA-MB-231 breast, 41.3 µM with T-47D breast, 31 µM with LOX IMVI melanoma and 31.4 µM in the assay on CAKI-1 renal.
For the molecule `CC(C)(C)OC(=O)Nc1cc(-c2ccccc2)co1`, the TGI with IGROV1 ovarian, with TK-10 renal, in the assay with NCI/ADR-RES ovarian, in the assay with SK-MEL-5 melanoma, in the assay on KM12 colon and in the assay with OVCAR-4 ovarian was over 100 µM each time. Also, the TGI in the assay with MDA-MB-231 breast, with T-47D breast, in the assay with LOX IMVI melanoma and with CAKI-1 renal was over 100 µM each time.
Regarding `COc1ccc(CCCC(=O)O)c(C)c1`, the TGI with IGROV1 ovarian, with TK-10 renal, in the assay with NCI/ADR-RES ovarian, with SK-MEL-5 melanoma, in the assay on KM12 colon and with OVCAR-4 ovarian was over 100 µM in each case. Further, the TGI in the assay with MDA-MB-231 breast was over 100 µM; in the assay with T-47D breast it was over 100 µM; with LOX IMVI melanoma, over 100 µM; in the assay with CAKI-1 renal, 51.1 µM.
`NCCCc1c(-c2ccccc2)nc(N)[nH]c1=O`: the TGI in the assay on IGROV1 ovarian, in the assay on TK-10 renal, in the assay on NCI/ADR-RES ovarian, with SK-MEL-5 melanoma, in the assay on KM12 colon and in the assay on OVCAR-4 ovarian was over 100 µM each time. In addition, the TGI with MDA-MB-231 breast, in the assay on T-47D breast, in the assay with LOX IMVI melanoma and in the assay with CAKI-1 renal was over 100 µM throughout.
As for `CCN(CC)CCSc1nc2c(c(=N)n1-c1ccccc1)c(=S)n(-c1ccccc1)c(=S)n2-c1ccccc1`, the TGI stood at 3.24 µM with IGROV1 ovarian; 3.17 µM with TK-10 renal; 52.5 µM with NCI/ADR-RES ovarian; 11.4 µM in the assay on SK-MEL-5 melanoma; 12.8 µM with KM12 colon; 7.87 µM in the assay with OVCAR-4 ovarian. Also, the TGI with MDA-MB-231 breast amounted to 3.73 µM; with T-47D breast, 9.03 µM; in the assay on LOX IMVI melanoma, 3.34 µM; in the assay on CAKI-1 renal it was 2.94 µM.
In the case of `COc1ccc(CCc2ccc(O)c(C(=O)O)c2)cc1OC`, the TGI in the assay with IGROV1 ovarian, with TK-10 renal, with NCI/ADR-RES ovarian, with SK-MEL-5 melanoma, in the assay with KM12 colon and in the assay on OVCAR-4 ovarian was over 100 µM throughout. The TGI with MDA-MB-231 breast, in the assay on T-47D breast, in the assay with LOX IMVI melanoma and in the assay on CAKI-1 renal was over 100 µM throughout.
Take `O=C(/C=C\Nc1ccccc1O)C(Cl)(Cl)Cl`: the TGI in the assay with IGROV1 ovarian, in the assay on TK-10 renal, in the assay with NCI/ADR-RES ovarian, in the assay with SK-MEL-5 melanoma, with KM12 colon and in the assay on OVCAR-4 ovarian was over 100 µM throughout. Besides, the TGI was over 100 µM with MDA-MB-231 breast, 96.4 µM with T-47D breast, over 100 µM in the assay on LOX IMVI melanoma and over 100 µM in the assay with CAKI-1 renal.
For the molecule `COc1ccc(C2SCC(=O)N2NC(=O)C(C)Oc2ccccc2Cl)cc1` (stereo not given), the TGI in the assay on IGROV1 ovarian is over 100 µM; with TK-10 renal, over 100 µM; with NCI/ADR-RES ovarian it was over 100 µM; with SK-MEL-5 melanoma, 65.6 µM; with KM12 colon, over 100 µM; with OVCAR-4 ovarian, over 100 µM. In addition, the TGI in the assay on MDA-MB-231 breast is over 100 µM; with T-47D breast it was over 100 µM; in the assay with LOX IMVI melanoma it was 62 µM; in the assay on CAKI-1 renal, over 100 µM.
As to `CC1(C)C(=O)C2(OS(=O)(=O)C(F)(F)F)CCC1C2` (stereo not given), the TGI in the assay on IGROV1 ovarian, in the assay on TK-10 renal, in the assay on NCI/ADR-RES ovarian, in the assay with SK-MEL-5 melanoma, in the assay on KM12 colon and in the assay on OVCAR-4 ovarian was over 100 µM each time. Besides, the TGI in the assay on MDA-MB-231 breast, with T-47D breast, with LOX IMVI melanoma and in the assay with CAKI-1 renal was over 100 µM throughout.
Take `COC(=O)c1ccc(CCc2cc(O)c(Br)cc2O)cc1`: the TGI is 28.5 µM in the assay on IGROV1 ovarian; 27.6 µM in the assay on TK-10 renal; 43.2 µM in the assay on NCI/ADR-RES ovarian; 23.7 µM with SK-MEL-5 melanoma; over 55.3 µM with KM12 colon; 23.2 µM in the assay on OVCAR-4 ovarian. Also, the TGI with MDA-MB-231 breast was 29 µM; with T-47D breast, 51.1 µM; with LOX IMVI melanoma it was 27.2 µM; with CAKI-1 renal, 23.2 µM.
